Results published in PMC12257542, “A Radiolabeled Photoswitchable G Protein-Coupled Receptor Antagonist Enlightens Ligand Binding Kinetics Associated with Photoswitching” (Journal of the American Chemical Society, 2025).
Read-outs that look alike come from different tables or passages of the source.

Tests used:
[1] = biological target: Nluc-H2R (Homo sapiens, UniProt P25021); format: binding; settings: trans isomer; at concentrations lower than 1 μM; competition with 50 nM UR-KAT478
[2] = Photostationary state area percentages by LC-MS at the isosbestic point; format: physicochemical
[3] = Detailed photochemical characterization of 3f (1H NMR, UV-vis switching cycles); format: physicochemical
Description: Figure S10. Photochemical properties of 3f. (A) UV-vis spectra of 25 µM 3f in HBSS buffer containing 1% DMSO in the dark, after illumination to PSScis with 365 ± 10 nm for 2 min and after subsequent illumination to PSStrans with 506 ± 20 nm for 2 min. (B) Representative parts of LC−MS chromatograms of 3f in the dark, after illumination with 365 ± 10 nm for 300 s to reach PSScis and subsequently with 506 ± 20 nm for 300 s to reach PSStrans (full chromatograms […]
(C) Part of 1H NMR spectra of 10 mM 3f in DMSO-d6 (representing the two aromatic signals) in the dark, after illumination with 365 ± 10 nm for 600 s to reach PSScis and subsequently 506 ± 20 nm for 900 s to reach PSStrans (full spectra are shown in Figure S12). (D) Reversible isomerization cycles of 25 µM 3f in HBSS buffer containing 1% DMSO, repeatedly illuminated for 30 s with 365 ± 10 nm to reach PSScis and subsequently for […]
60 s with 506 ± 20 nm to reach PSStrans. […]
states in the 400-550 nm area (Figure S10A). This allows efficient trans-PSScis photoswitching in HBSS buffer using UV light (365 nm) and PSScis-PSStrans back-switching with green light (506 nm). LC-MS analysis (Figure S10B, S11) and, more quantitively, 1H NMR analysis (Figure S10C, S12) reveal high PSScis and PSStrans values for 3f (98% and >95% cis isomer for PSScis by LC-MS and 1H NMR analysis, respectively; 93% and 93% trans isomer for PSStrans by LC-MS and 1H NMR analysis, respectively). These analyses also confirmed that no photodecomposition occurs upon illumination with either 365 or 506 nm. Reversible isomerization cycles could be conducted in HBSS buffer without any photobleaching (Figure […]
S10D). […] Subsequently, the […]
UV−Vis spectra were recorded using a Thermo-scientific Evolution 201 PC spectrophotometer equipped with a thermostated cell holder set at 20 °C. […] The light intensity used for the lambda 10-3 optical filter is 0.93 mW/mm2 using the 360 ± 20 nm filter, 0.79 mW/mm2 for the 434 ± 9 nm filter, 0.77 mW/mm2 for the 494 ± 9 nm filter as measured using a Thorlabs PM16−401 power meter. […]

[4] = biological target: hH3R (Homo sapiens, UniProt Q9Y5N1); test: Competition binding of non-labeled ligands with trans-[3H]3f on hH3R-expressing cell homogenates; settings: read-out: pKi in competition with trans-[3H]3f (converted)
[5] = biological target: T1, H1R (Homo sapiens, UniProt P35367); test: Histamine receptor selectivity binding, [3H]mepyramine competition on cell homogenates expressing H1R; settings: trans isomer; at concentrations lower than 1 μM; competition with [3H]mepyramine
T1 construct: HA; expressed in transfected cells; host or cells: HEK293T, transient transfection (pcDEF3), cell homogenates

[6] = biological target: T2, mouse H3R (Mus musculus, UniProt P58406); test: [3H]NAMH competition radioligand binding on mH3R-expressing cell homogenates
T2 construct: expressed in transfected cells; host or cells: HEK293T, transient transfection (pcDEF3), cell homogenates
Description: Figure S15. Histamine receptor selectivity binding experiments. Concentration binding curves of trans-3f on cell homogenates expressing H1R (in competition with 4.0-4.8 nM [3H]mepyramine) or H4R (competition with 1.9-2.4 nM [3H]histamine. H2R binding was […]
KAT478). Pooled data of three independent experiments are shown as mean ± SEM.
Figure S16. Radioligand binding experiments with 3f on mH3R-expressing cell homogenates in competition with [3H]NAMH (1.4-1.7 nM). Pooled data of three independent experiments […]
Experimental procedures - Pharmacology […]
were purchased from Promega.
HEK293T cells stably expressing
48 hours post transfection,
[3H]3f binding experiments […]
by sonication (Sonifier Branson).
RT) containing 0.8% ethanol.
The incubation was terminated by
H2R selectivity was assessed
Cells were incubated with ligands

[7] = biological target: H3R (Homo sapiens, UniProt Q9Y5N1); test: Functional H3R NanoBiT-PKA (cAMP sensor) assay in transiently transfected HEK293T cells; format: cell-based
Sequence of H3R (Q9Y5N1 whole entry): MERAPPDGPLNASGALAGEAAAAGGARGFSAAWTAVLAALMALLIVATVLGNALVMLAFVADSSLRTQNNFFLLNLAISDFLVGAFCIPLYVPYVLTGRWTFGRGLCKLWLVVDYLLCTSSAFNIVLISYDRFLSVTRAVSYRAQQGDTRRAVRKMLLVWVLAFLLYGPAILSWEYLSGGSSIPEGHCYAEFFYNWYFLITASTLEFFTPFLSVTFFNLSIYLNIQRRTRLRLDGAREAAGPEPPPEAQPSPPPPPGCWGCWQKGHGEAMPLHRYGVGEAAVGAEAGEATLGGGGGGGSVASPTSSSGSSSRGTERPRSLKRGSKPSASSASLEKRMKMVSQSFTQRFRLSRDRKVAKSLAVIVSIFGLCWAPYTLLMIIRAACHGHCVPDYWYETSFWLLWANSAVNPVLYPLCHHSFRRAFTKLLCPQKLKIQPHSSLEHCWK

T2 sequence (P58406 whole entry): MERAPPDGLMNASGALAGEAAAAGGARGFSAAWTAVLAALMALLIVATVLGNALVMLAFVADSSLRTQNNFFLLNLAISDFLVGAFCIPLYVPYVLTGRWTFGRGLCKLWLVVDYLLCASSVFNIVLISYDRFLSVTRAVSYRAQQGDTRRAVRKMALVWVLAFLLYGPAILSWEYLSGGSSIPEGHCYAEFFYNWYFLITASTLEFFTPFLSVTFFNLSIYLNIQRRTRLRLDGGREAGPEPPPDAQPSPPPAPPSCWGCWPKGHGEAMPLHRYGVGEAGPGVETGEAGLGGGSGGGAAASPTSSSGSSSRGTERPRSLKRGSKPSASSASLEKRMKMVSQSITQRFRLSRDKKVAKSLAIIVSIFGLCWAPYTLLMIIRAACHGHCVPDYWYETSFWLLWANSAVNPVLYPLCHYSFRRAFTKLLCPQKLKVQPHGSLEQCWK
Sequence of hH3R (Q9Y5N1 whole entry): as the sequence (Q9Y5N1 whole entry) above
T1 sequence (P35367 whole entry): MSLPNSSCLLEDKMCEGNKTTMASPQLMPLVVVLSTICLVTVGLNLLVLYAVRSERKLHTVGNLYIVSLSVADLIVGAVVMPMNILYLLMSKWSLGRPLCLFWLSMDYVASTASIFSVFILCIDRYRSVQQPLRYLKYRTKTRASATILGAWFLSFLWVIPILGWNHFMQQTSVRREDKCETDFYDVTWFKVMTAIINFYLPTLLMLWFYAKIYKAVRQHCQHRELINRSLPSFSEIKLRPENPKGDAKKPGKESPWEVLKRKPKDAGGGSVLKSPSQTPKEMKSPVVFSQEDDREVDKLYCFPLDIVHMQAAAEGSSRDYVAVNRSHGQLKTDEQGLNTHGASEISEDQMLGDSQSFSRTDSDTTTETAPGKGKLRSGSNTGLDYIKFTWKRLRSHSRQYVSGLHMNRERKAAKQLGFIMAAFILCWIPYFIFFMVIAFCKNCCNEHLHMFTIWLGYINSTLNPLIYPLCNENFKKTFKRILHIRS
Sequence of Nluc-H2R (P25021 whole entry): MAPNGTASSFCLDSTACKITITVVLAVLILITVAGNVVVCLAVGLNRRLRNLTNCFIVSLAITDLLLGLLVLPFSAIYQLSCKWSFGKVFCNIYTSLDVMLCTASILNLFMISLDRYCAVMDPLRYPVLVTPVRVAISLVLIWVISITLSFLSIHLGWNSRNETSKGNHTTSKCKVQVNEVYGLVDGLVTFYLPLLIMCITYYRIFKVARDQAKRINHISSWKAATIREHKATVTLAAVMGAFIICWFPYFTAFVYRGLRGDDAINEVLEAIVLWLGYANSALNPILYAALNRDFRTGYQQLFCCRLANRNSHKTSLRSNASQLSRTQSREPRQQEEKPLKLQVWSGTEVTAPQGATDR

binding to H2R [1]: does not bind | PSScis (area %cis) ([2]; after illumination of trans isomer with 365 ± 10 nm at 1 mM in DMSO for 10 min): 98 area % | PSStrans (area %trans) ([2]; illumination of PSS cis state with 506 ± 20 nm at 1 mM in DMSO for 10 min): 93 area % | PSScis (% cis isomer) by 1H NMR ([3]; 10 mM in DMSO-d6, 365 ± 10 nm for 600 s): > 95% | PSStrans (% trans isomer) by 1H NMR ([3]; 10 mM in DMSO-d6, 506 ± 20 nm for 900 s): 93% | photodecomposition upon illumination ([3]; illumination with either 365 or 506 nm, LC-MS and 1H NMR): no | Ki ([4]; unlabeled PSS cis state): 20 nM | Ki ([4]; unlabeled trans isomer): 1 nM | binding to H1R [5]: does not bind | Ki ([6]; trans isomer, [3H]NAMH (1.4-1.7 nM), read-out: pKi mouse H3R (converted)): 1.58 nM | fold shift in affinity upon photoisomerization to PSS cis (mouse H3R) ([6]; trans versus PSS cis): 42 fold | block of the H3R agonist response ([7]; 100 nM trans-3f preincubated, 10 nM immethridine, dark): approximately 80% | reversal of the response, % of the maximal agonist response ([7]; 100 nM trans-3f, 10 nM immethridine, after 365 nm LED light 10 min, 2 mW): approximately 80% | IC50 ([7]; 365 nm 10 min (second cycle), 10 nM immethridine, read-out: pIC50, dynamic trans-3f switching step 4 (converted)): 398 nM | IC50 ([7]; 365 nm 10 min, 10 nM immethridine, read-out: pIC50, dynamic trans-3f switching step 2 (converted)): 794 nM | IC50 ([7]; 500 nm 10 min (second cycle), 10 nM immethridine, read-out: pIC50, dynamic trans-3f switching step 5 (converted)): 50.1 nM | IC50 ([7]; 500 nm 10 min, 10 nM immethridine, read-out: pIC50, dynamic trans-3f switching step 3 (converted)): 50.1 nM | IC50 ([7]; PSS cis (pre-illuminated trans-3f), competition with 10 nM immethridine, 15 min incubation, read-out: pIC50 3f-PSScis (converted)): 398 nM | IC50 ([7]; no irradiation (dark), 10 nM immethridine, read-out: pIC50, dynamic trans-3f switching step 1 (converted)): 20 nM | IC50 ([7]; trans isomer, competition with 10 nM immethridine, 15 min incubation, read-out: pIC50 trans-3f (converted)): 31.6 nM | Fold IC50 shift ([7]; trans-3f versus 3f-PSS cis): 12.6 fold
Structure (SMILES): Cc1nn(C2CCN(C)CC2)c(C)c1/N=N/c1ccc(O[C@H]2C[C@H](N3CCCCC3)C2)cc1 [Compound 3f]
